Assay results as given in patent publication US8114904B2, “Luminescence quenchers and fluorogenic probes for detection of reactive species” (Versitech Limited & Morningside Ventures Limited, priority 2008, dated 2012).

Assays:
[1] = UV-visible absorption spectrum; format: physicochemical; settings: pH 7.4 0.1 M phosphate buffer, 0.1% DMF
Experimental: Compound 10 obtained in Example 4 was dissolved in pH 7.4 0.1 M phosphate buffer containing 0.1% DMF as cosolvent to form a 10 μM solution.
Compound 12 obtained in Example 5 was dissolved in pH 7.4 0.1 M phosphate buffer containing 0.1% DMF as cosolvent to form a 1 μM solution.
Compound 14 obtained in Example 6 was dissolved in pH 7.4 0.1 M phosphate buffer containing 0.1% DMF as cosolvent to form a 1 μM solution.
Compound 30 obtained in Example 7 was dissolved in pH 7.4 0.1 M phosphate buffer containing 0.1% DMF as cosolvent to form a 10 μM solution. The absorption spectrum of the 10 μM solution of Compound 30 was measured.

[2] = Comparison of specificity with different ROS and RNS; settings: for fluorescence enhancement by peroxynitrite compared with any other ROS and RNS: 25° C.
Experimental: The reactivity of Compound 10 was compared toward different reactive oxygen species (ROS) and reactive nitrogen species (RNS), including OCl^−, H2O2, ^1O2, NO, O2^•−, ^•OH, ONOO^− and alkylperoxyl radical (ROO^•). Different reactive oxygen species and reactive nitrogen species were added independently to 5 mL of the solution of Compound 10 (10 μM in 0.1 M potassium phosphate buffer). The changes of fluorescence intensity before and after the treatment were measured. The reactive oxygen species and reactive nitrogen species were prepared as follows. • a. H2O2 (final 100 μM) was added and then stirred for 1 hour at 25° C. • b. (3-(1,4-Dihydro-1,4-epidioxy-1-naphthyl)propionic acid) (final 100 μM) was added and then stirred at 25° C. for 1 hour. • c. 2,2′-Azobis(2-amidinopropane)dihydrochloride (final 100 μM) was added and then stirred at 25° C. for 1 hour. • d. SNP (Sodium Nitroferricyanide (III) Dihydrate) (final 100 μM) was added and then stirred for 1 hour at 25° C. • e. O2^•− was generated by xanthine and xanthine oxidase. Xanthine oxidase was added firstly. After xanthine oxidase was dissolved, xanthine (final 100 μM) was added and the mixtures were stirred at 25° C. for 1 hour. • f. Ferrous chloride (final 10 μM) was added in the presence of 10 equivalences of H2O2 (100 μM). • g. ONOO^− (final 10 μM) was added at 25° C. • h. NaOCl (final 10 μM) was added at 25° C. Commercial bleach was the source of NaOCl.
The reactivity of Compound 12 was compared toward different reactive oxygen species (ROS) and reactive nitrogen species (RNS), including OCl^−, H2O2, ^1O2, NO, O2^•−, ^•OH, ONOO^− and alkylperoxyl radical (ROO^•). Different reactive oxygen species and reactive nitrogen species were added independently to 5 mL of the solution of Compound 12 (1 μM in 0.1 M potassium phosphate buffer). The changes of fluorescence intensity before and after the treatment were measured. The reactive oxygen species and reactive nitrogen species were prepared as follows: • i. H2O2 (final 100 μM) was added and then stirred for 1 hour at 25° C. • j. (3-(1,4-Dihydro-1,4-epidioxy-1-naphthyl)propionic acid) (final 100 μM) was added and then stirred at 25° C. for 1 hour. • k. 2,2′-Azobis(2-amidinopropane)dihydrochloride (final 100 μM) was added and then stirred at 25° C. for 1 hour. • l. SNP (Sodium Nitroferricyanide (III) Dihydrate) (final 100 μM) was added and then stirred for 1 hour at 25° C. • m. O2^•− was generated by xanthine and xanthine oxidase. Xanthine oxidase was added firstly. After xanthine oxidase was dissolved, xanthine (final 100 μM) was added and the mixtures were stirred at 25° C. for 1 hour. • n. Ferrous chloride (final 10 μM) was added in the presence of 10 equivalences of H2O2 (100 μM). • o. ONOO^− (final 10 μM) was added at 25° C. • p. NaOCl (final 10 μM) was added at 25° C. Commercial bleach was the source of NaOCl.
The reactivity of Compound 14 was compared toward different reactive oxygen species (ROS) and reactive nitrogen species (RNS), including OCl^−, H2O2, ^1O2, NO, O2^•−, ^•OH, ONOO^− and alkylperoxyl radical (ROO^•). Different reactive oxygen species and reactive nitrogen species were added independently to 5 mL of the corresponding solution of Compound 14 (1 μM in 0.1 M potassium phosphate buffer). The changes in fluorescence intensity before and after the treatment were measured. The reactive oxygen species and reactive nitrogen species were prepared as follows: • a. H2O2 (final 100 μM) was added and then stirred for 1 hour at 25° C. • b. (3-(1,4-Dihydro-1,4-epidioxy-1-naphthyl)propionic acid) (final 100 μM) was added and then stirred at 25° C. for 1 hour. • c. 2,2′-Azobis(2-amidinopropane)dihydrochloride (final 100 μM) was added and then stirred at 25° C. for 1 hour. • d. SNP (Sodium Nitroferricyanide (III) Dihydrate) (final 100 μM) was added and then stirred for 1 hour at 25° C. • e. O2^•− was generated by xanthine and xanthine oxidase. Xanthine oxidase was added firstly. […]

[3] = 10 μM probe in 0.1 M potassium phosphate buffer
[4] = 1 μM probe in 0.1 M potassium phosphate buffer

SMILES	absorption maximum ([1]; 10 μM solution)	reactivity among ROS and RNS in an abiotic system [2, 3]	fluorescence enhancement by peroxynitrite compared with any other ROS and RNS [2, 3]	absorption maximum ([1]; 1 μM solution)	reactivity among ROS and RNS in an abiotic system [2, 4]	fluorescence enhancement by peroxynitrite compared with any other ROS and RNS [2, 4]
CN(c1ccc(CCC(=O)C(F)(F)F)cc1)c1cc2c(cc1Cl)C1(OC(=O)c3ccccc31)c1cc(Cl)c(O)cc1O2 (stereo not drawn) [Compound 10]	about 520 nm	much higher reactivity towards peroxynitrite	much stronger fluorescence enhancement			
CN(c1ccc(O)cc1)c1ccc2c(c1)Oc1cc(O)ccc1C21OC(=O)c2ccccc21 (stereo not drawn) [Compound 12]				about 515 nm	much higher reactivity towards peroxynitrite	much stronger fluorescence enhancement
